In US12527519B2, “Neurostimulation devices and methods” (Cardionomix, Inc., priority 2016, dated 2026):

Test system: normal, non-HF ovine model
Assay: Right ventricle vs left ventricle contractility after a change, pressure max(dP/dt) as surrogate, heartbeat-by-heartbeat correlation
Type: in vivo
Details: max(dP/dt) as surrogate for contractility, calcium at 5 mL
Source text: The correlation was a heartbeat-by-heartbeat analysis. Pressure measurements, taken by a Millar catheter comprising a MEMS pressure sensor, in units of max(dP/dt) was used as a surrogate for contractility.
The first change, a dobutamine injection, provided a very high contractility increase greater than 500%. The average correlation between right ventricle contractility and left ventricle contractility was very good at 0.91, where 1.00 is a perfect correlation. Accordingly, if a subject is given a dobutamine injection, measuring changes to right ventricle contractility can provide accurate information about changes to left ventricle contractility. The first change was repeated three times.
The second change, calcium injection at 5 mL, provided a contractility increase of about 20%. […] The average correlation between right ventricle contractility and left ventricle contractility using a Millar (MEMS) sensor on a catheter was very good at 0.91. The average correlation between right ventricle contractility and left ventricle contractility using a fluid-filled lumen of a Swan-Ganz catheter in communication with an external pressure sensor was also very good at 0.87. […]

calcium [Calcium Injection]
Contractility % Increase: ~20% | Contractility % Increase (listed as calcium injection): about 20%
